# Assays:
# [1] = tested on: AChE; design: method as in PMID 31014820; details: cited from earlier work; for inhibition effects on AChE: in words
# [2] = target: T1, AChE from Electrophorus electricus (Electrophorus electricus, UniProt O42275); test: biochemical; details: for AChE residual activity at 10 µM (% of untreated): 10 µM compound, t = 25 min, triplicates, mean ± SD; for inhibition at 10 µM: read-out: AChE inhibition at 10 µM screening concentration
# T1 construct: purchased Sigma-Aldrich, Germany
# T1 sequence (O42275 24-633): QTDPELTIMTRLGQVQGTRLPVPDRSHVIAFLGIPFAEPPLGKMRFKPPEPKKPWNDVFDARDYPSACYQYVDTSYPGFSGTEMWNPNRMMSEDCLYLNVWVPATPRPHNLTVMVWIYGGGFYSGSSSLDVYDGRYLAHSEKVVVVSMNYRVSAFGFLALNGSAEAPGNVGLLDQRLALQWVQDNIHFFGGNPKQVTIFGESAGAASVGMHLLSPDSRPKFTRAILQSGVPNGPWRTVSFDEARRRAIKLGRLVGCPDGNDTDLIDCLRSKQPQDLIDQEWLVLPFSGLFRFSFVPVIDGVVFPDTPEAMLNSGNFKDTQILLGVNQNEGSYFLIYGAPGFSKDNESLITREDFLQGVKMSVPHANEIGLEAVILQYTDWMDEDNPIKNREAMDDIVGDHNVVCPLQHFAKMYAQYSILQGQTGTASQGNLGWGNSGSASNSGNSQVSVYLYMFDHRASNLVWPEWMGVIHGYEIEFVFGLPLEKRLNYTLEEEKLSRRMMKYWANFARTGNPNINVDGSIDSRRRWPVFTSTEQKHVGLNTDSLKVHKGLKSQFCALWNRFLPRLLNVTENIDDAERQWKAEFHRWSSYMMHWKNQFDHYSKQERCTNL
# Procedure: The compounds were further tested for their ability to inhibit AChE in vitro [24].
# Acetylcholine esterase (AChE) assay
# Determination of AChE activity was based on the original method by Ellman adapted for 384 well plate format. The plates were first pre-spotted with 20 nL of 10 mM DMSO solution of the compound with the use of ECHO 550® liquid handler (to reach 10 µM final concentration). Master mix solution was prepared alongside and kept on ice until dispensed in the wells. The mix consisted of 1.5 mM acetylthiocholine iodide (ATCI), 1.5 mM 5,5-dithiobis(2-nitrobenzoic acid) (DTNB) and 30 mU/mL AChE from Electrophorus electricus (Sigma-Aldrich, Germany) in 50 mM TRIS-Cl buffer, pH 7.5, containing 0.04% BSA, 50 mM NaCl and 10 mM MgCl2. 20 µL of the master mix was then dispensed into the wells of a transparent flat-bottom 384-well plate (Nunc). The microplate was briefly but vigorously mixed on an orbital shaker and placed into a Tecan SPARK microplate reader where the absorbance at 405 nm was continuously monitored for 25 min (linear range). In parallel, the no-enzyme control reaction was run to exclude interference of the compounds with the assay. The background value was subtracted from the signal of the enzyme-containing wells. Enzyme inhibition was expressed as a signal percentage compared to an uninhibited reaction at t = 25 min: % residual activity = (A405 sample/A405 control) × 100. […]
# were analysed with the use of Prism 9 (GraphPad Inc., San Diego, USA). The values were measured in triplicates, and the results are p resented as means ± SD. […]
# [3] = tested on: seed germination; design: method as in doi:10.1016/j.sajb.2013.12.003; details: compared with KAR1; cited from earlier work
# [4] = tested on: MAO-B; design: method as in PMID 31014820; details: cited from earlier work
SMILES,AChE residual activity at 10 µM (% of untreated) [2],further results
"Cc1cc2c(C)c(=O)oc-2co1 [Compound 3, reference compound]",–,IC50 [1]: 370 ± 20 nM; inhibition effects on AChE [1]: submicromolar
Cc1sccc2c(C)c(=S)oc1-2 [Compound 29],86 ± 2 % of untreated,inhibition at 10 µM [2]: ~15%
S=c1cc2ccocc-2o1 [Compound 10],99 ± 3 % of untreated,–
O=c1cc2ccscc-2o1 [Compound 26],99 ± 0.4 % of untreated,–
Cc1occc2c(C)c(=S)oc1-2 [Compound 12],91 ± 2 % of untreated,–
S=c1cc2ccscc-2o1 [Compound 30],92 ± 1 % of untreated,–
Cc1cc2c(C)c(=S)oc-2co1 [Compound 11],93 ± 3 % of untreated,–
Cc1cc2c(C)c(=S)oc-2cs1 [Compound 28],85 ± 1 % of untreated,inhibition at 10 µM [2]: ~15%
"Cc1c2ccscc-2oc1=O [Compound 8, 3-methyl-2H-thiopyrano[3,4-b]furan-2-one]",–,IC50 [1]: 80 ± 6 nM; inhibition effects on AChE [1]: submicromolar; germination activity [3]: lower germination activity than KAR1; IC50 [4]: 30 nM
Cc1sccc2c(C)c(=O)oc1-2 [Compound 21],91 ± 2 % of untreated,–
Cc1cc2c(C)c(=O)oc-2cs1 [Compound 20],90 ± 2 % of untreated,–
Cc1c2ccscc-2oc1=S [Compound 27],97 ± 5 % of untreated,–
Cc1c2ccocc-2oc1=S [Compound 9],95 ± 8 % of untreated,–

# — publication PMC9127252, “Synthesis of sulfur karrikin bioisosteres as potential neuroprotectives” (Beilstein Journal of Organic Chemistry, 2022)
